One block for each compound: values may come before it.
Columns and labels:
[1] = Identification of prototype compounds and metabolites in human plasma after oral K-601 (UPLC-QTOF/MS, EIC peak height); type: in vivo
Procedure: (§1) Chromatographic separation was carried out at 25 °C on a Zorbax RRHD Eclipse Plus C18 column (2.1 × 50 mm, 1.8 μm). The mobile phase consisted of 0.1% formic acid solution (A) and ACN (B) using a gradient elution of 0–5% B at 0–6 min, 5–8% B at 6–15 min, 8–15% B at 15–20 min, 15–20% B at 20–30 min, 20–30% at 30–35 min, 30–35% at 35–45 min, 35–40% at 45–60 min. The flow rate was kept at 0.2 mL/min, and the sample volume injected was set at 5 μL. […] The parameters of operation were as follows: drying gas N2 flow rate, 10.0 L/min; temperature, 330 °C; nebulizer, 35 psig; capillary, 3000 V; skimmer, 60 V; OCT RFV, 250 V. Each sample was analyzed in both the positive and negative modes due to the selective sensitivities to different components of the formulation-providing better information for molecular formulae and structural identification. Mass spectra were recorded across the range m/z 100–1000 with accurate mass measurements.
A total of six healthy male volunteers, ages ranging from 22–47 years took part in this study. Three of whom are Africans and three Chinese. […] None was also on any medication.
Blood samples were withdrawn from subjects at the following time intervals, 0 hour (before taking medication and breakfast), 1, 2, 4, and 6 hours after taking the medication. These blood samples were taken by a qualified phlebotomist in the hospital. Each volunteer took 40 mL of same batch of the medication as a single dose. […] Details of subjects in the pharmacokinetic studies are provided (Table 5).
(§2) All blood samples taken at each time were immediately centrifuged at 13000 rpm for 10 min, and the plasma separated and stored at −80 °C until analysis. Plasma samples were thawed at 37 °C before solid-phase extraction (SPE) treatment for UPLC-QTOF/MS analysis. The sample treatment procedure is schematically presented in Supplementary Figure S3.

[2] = Pharmacokinetics of major prototype compounds in healthy Chinese and African volunteers after single oral K-601 (EIC peak area vs time); type: in vivo, human; details: single oral 40 mL K-601; for Tmax: male, human, plasma, po, 40 mL
Procedure: A total of six healthy male volunteers, ages ranging from 22–47 years took part in this study. Three of whom are Africans and three Chinese. All volunteers avoided the intake of alcohol/alcoholic beverages, coffee/beverages containing coffee for at least 12 hours prior to the study. None was also on any medication. All volunteers also fasted for 12 hours prior to the study and throughout the study period.
Blood samples were withdrawn from subjects at the following time intervals, 0 hour (before taking medication and breakfast), 1, 2, 4, and 6 hours after taking the medication. These blood samples were taken by a qualified phlebotomist in the hospital. Each volunteer took 40 mL of same batch of the medication as a single dose. This study was approved by the Ethics Committee of the First Affiliated Hospital of Nanjing Medical University (2013-SRFA-078) and conducted under the guidelines of the Helsinki Declaration and the International Conference on Harmonization-Good Clinical Practices (ICH-GCP). Details of subjects in the pharmacokinetic studies are provided (Table 5).
as §2
Pharmacokinetic analyses were done using the extracted ion chromatograms (EIC) of the most abundant compounds. The peak areas of derived from the EIC were plotted against time (h).

human intestinal flora = assay: Biotransformation and metabolism of K-601 by human fecal flora (anaerobic incubation); type: in vitro ADME
Procedure: as §1

[3] = human plasma after administration of K-601, metabolites
[4] = human plasma after single oral 40 mL K-601, prototype compounds

Compound: 4-O-caffeoylquinic acid [P8]
- Abund. (peak height in the EIC) of prototype compound in plasma ([1]; in vivo, po): 0.04 ×10^4

Compound: O=C1c2cccc(O)c2C(=O)c2c(O)cc(O)cc21 [M10]
- Abund. (peak height in the EIC) of metabolite in plasma [1, 3]: 0.02 ×10^4
- Peak abundance (class) of metabolite in plasma [1, 3]: Low (<0.10 × 10^4 as trace constituent, thus low-level)

- AUC comparison African vs Chinese volunteers (in words) [2]: better in the Chinese volunteers
Compound: COc1ccc2c(c1O)-c1c(O)c(OC)cc3c1[C@H](C2)[N+](C)(C)CC3 [P1, Magnoflorine]
- Abund. (peak height in the EIC) of prototype compound in plasma ([1]; male, human, in vivo, po): 6.52 ×10^4

Compound: COc1cc2c(cc1OC)[C@@H]1Cc3ccc(OC)c(OC)c3CN1CC2 [P2, Tetrahydropalmatine]
- Abund. (peak height in the EIC) of prototype compound in plasma [1, 4]: 0.03 ×10^4

Compound: COc1cc2c(cc1O)CC[n+]1cc3c(OC)c(OC)ccc3cc1-2 [P3, Jatrorrhizine]
- Abund. (peak height in the EIC) of prototype compound in plasma ([1]; male, human, in vivo, po): 3.53 ×10^4
- Tmax ([2]; African volunteers): 4 h
- Tmax ([2]; Chinese volunteers): 1 h
- AUC comparison African vs Chinese volunteers (in words) [2]: higher

- Tmax ([2]; African volunteers): 4 h
- Tmax ([2]; Chinese volunteers): 1 h
- AUC comparison African vs Chinese volunteers (in words) [2]: higher
Compound: COc1cc2c(cc1OC)-c1cc3ccc(OC)c(OC)c3c[n+]1CC2 [P4, Palmatine]
- Abund. (peak height in the EIC) of prototype compound in plasma [1, 4]: 12.63 ×10^4
- Peak abundance (class) of prototype compound in plasma [1, 4]: High (> 1.00 × 10^4, defined as major constituent, thus high-level)

- Tmax ([2]; African volunteers): 4 h
- Tmax ([2]; Chinese volunteers): 1 h
- AUC comparison African vs Chinese volunteers (in words) [2]: higher
Compound: COc1ccc2cc3[n+](cc2c1OC)CCc1cc2c(cc1-3)OCO2 [P5, Berberine]
- Abund. (peak height in the EIC) of prototype compound in plasma [1, 4]: 50.35 ×10^4
- Peak abundance (class) of prototype compound in plasma [1, 4]: High (> 1.00 × 10^4, defined as major constituent, thus high-level)

Compound: C=C[C@H]1[C@H](O[C@@H]2O[C@H](CO)[C@@H](O)[C@H](O)[C@H]2O)OC=C(C(=O)O)[C@H]1CC(=O)O [P6, Secologanoside]
- Abund. (peak height in the EIC) of prototype compound in plasma ([1]; in vivo, po): 0.02 ×10^4

Compound: O=C(/C=C/c1ccc(O)c(O)c1)O[C@@H]1C[C@](O)(C(=O)O)C[C@@H](O)[C@H]1O [P7, Chlorogenic acid]
- Abund. (peak height in the EIC) of prototype compound in plasma [1, 4]: 0.03 ×10^4

Compound: O=c1c(O[C@@H]2O[C@H](CO)[C@H](O)[C@H](O)[C@H]2O)c(-c2ccc(O)c(O)c2)oc2cc(O)cc(O)c12 [P10, Hyperoside]
- Abund. (peak height in the EIC) of prototype compound in plasma [1, 4]: 0.05 ×10^4

Compound: Cc1cc(O)c2c(c1)C(=O)c1cc(O)cc(O)c1C2=O [P12, Emodin]
- Abund. (peak height in the EIC) of prototype compound in plasma [1, 4]: 0.04 ×10^4

Compound: COc1c(O[C@@H]2O[C@H](C(=O)O)[C@@H](O)[C@H](O)[C@H]2O)cc(O)c2c(=O)cc(-c3ccccc3)oc12 [P13, Wogonoside]
- Abund. (peak height in the EIC) of prototype compound in plasma [1, 4]: 0.42 ×10^4

Compound: O=C(O)c1cc(O)c2c(c1)C(=O)c1cccc(O)c1C2=O [P14, Rhein]
- Abund. (peak height in the EIC) of prototype compound in plasma [1, 4]: 0.62 ×10^4

Compound: Cc1cc(O)c2c(c1)C(=O)c1cc(C(=O)O)cc(O)c1C2=O [P15, 6-Methyl-rhein]
- Abund. (peak height in the EIC) of prototype compound in plasma ([1]; in vivo, po): 0.06 ×10^4

- Abund. (peak height in the EIC) of metabolite from human intestinal transformation (human intestinal flora): 0.05 ×10^4
Compound: O=C(O)c1cc(O)c(O)c(O)c1O [T1]

Compound: Caffeoyl-CH2-O-quinic acid [P9]
- Abund. (peak height in the EIC) of prototype compound in plasma [1, 4]: 0.03 ×10^4

— publication PMC4534804, “Pharmacokinetics of a multicomponent herbal preparation in healthy Chinese and African volunteers” (Scientific Reports, 2015)
